Assay [1] deals with monoclonal PKD1 KO mIMCD-3 cell line (clone #1). Nature of the assay: Luminescence-based ATP-dependent cell viability assay (CellTiter-Glo 2.0), dose-response, PKD1 knockout clone #1. The note with it: for IC50: Mus musculus; for effect sizes: further MEK-inhibitors tested, PKD1-deficient cells compared to wildtype cells. Details: species or system mouse. The protocol: (§1) Subculturing of cells was performed twice a week in a 1:10 ratio. Cells were maintained in a humidified incubator at 37°C and 5% CO2. […] The term "wild-type" is used for mIMCD-3 cells that were not edited by CRISPR-Cas9. The original cell line obtained from ATCC was generated from inner medullary collecting ducts of a SV-40 transgenic mouse.^13
(§2) Prior to genome editing, a monoclonal starting cell line was generated by a single cell sorting step.
(§3) After 72 hours cell density was checked with an inverted microscope (Zeiss Axiovert 40CFL). Cells were washed with 10 ml phosphate buffered saline (PBS). […] 10 ml DMEM:F12 with 10% FBS and 1% penicillin/streptomycin were added, cell detachment was facilitated by pipetting up and down multiple times. […] Cell density was diluted to 400,000 cells/ml for each genotype. […] Basins of 1536 well plates were filled with 25 µl (vertical basins) or 40 µl (horizontal basins) H2O in order to prevent evaporation induced edge effects. Confluency was checked after 24 hours with an Evos M5000 imaging system (Invitrogen).
(§4) For the secondary screen and validation experiments, source plates were generated with compounds in 1:2 dilutions allowing for the generation of dose-response-curves. 30 nl of compounds per well were transferred in secondary screen and validation experiments. […] The volume of transferred DMSO was adjusted according to the transferred compound volume. […] After compound transfer, plates were centrifuged (Multifuge 3 s-r, Heraeus) for 10 seconds (1,000 rpm). […] Plates were stored in incubators at 37°C and 5% CO2 for 72 hours. A maximum of two plates was stacked in the incubator. Source plates were sealed with an Agilent Technologies Plateloc heat sealer. Prior to compound transfer source plates were centrifuged (4,200 rpm, 1 min). Sealing was removed with a Brooks XPeel device.
(§5) After 72 hours of compound incubation, plates were allowed to adapt to room temperature for 20 minutes. […] The luminescence signal was allowed to stabilize for 20 min. Luminescence was scanned with a BMG Labtech Pherastar FSX luminescence reader with a measurement interval time of 0.16 s per well. A 1536-well plate adapted aperture was used to minimize cross-talk. Data analysis was performed with GraphPad Prism (version 9). Dose- and genotype-dependent differences in viability were checked for statistical significance by performing a two-way ANOVA (α = 0.05). Difference in protein abundance analyzed by western blot were checked for statistical significance by performing a student's t-test (α = 0.05).
On the technique in general: In ATP-based viability assays light output follows the ATP content of the culture.

Assay [2] deals with isogenic wildtype mIMCD-3 cells. Nature of the assay: Luminescence-based ATP-dependent cell viability assay (CellTiter-Glo 2.0), dose-response, isogenic wildtype counter screen. The note with it: Mus musculus. On the procedure:
as §1, §2, §3, §4, §5

In assay [3] the test system is second independent PKD1 KO clone (#2). Nature of the assay: Luminescence-based ATP-dependent cell viability assay (CellTiter-Glo 2.0), dose-response, PKD1 knockout clone #2. The note with it: Mus musculus. On the procedure: as §1, §2, §3, §4, §5
Setting [4] is: mIMCD3, mIMCD-3 PKD1 knockout clone 1, 72 hours compound incubation, IC50 = concentration that kills 50% of the cells, read-out: IC50 PKD1-/- (clone 1).
The mark [5] stands for this setting: mIMCD3, isogenic wildtype mIMCD-3 control cells, 72 hours compound incubation, read-out: IC50 wildtype.
Setting [6] is: mIMCD3, mIMCD-3 PKD1 knockout clone 2, 72 hours compound incubation, IC50 = concentration that kills 50% of the cells, read-out: IC50 PKD1-/- (clone 2).
[7] abbreviates: mIMCD3, 72 h, read-out: IC50 wildtype (µM).
Setting [8] is: mIMCD3, 72 h, read-out: IC50 PKD1-/- (clone 1) (µM).
Where [9] appears, read: mIMCD3, 72 h, read-out: IC50 PKD1-/- (clone 2) (µM).

Where two headings read alike, the source gives them in different places.

Consider `C=CCN1C(=O)CS/C1=N\NC(=S)NC` [Number 1, 1-methyl-3-[(Z)-(4-oxo-3-prop-2-enyl-1,3-thiazolidin-2-ylidene)amino]thiourea], for which the figures for the IC50 in assay [1] (setting [4]), in assay [2] (setting [5]) and in assay [3] (setting [6]) were 11.5 µM, greater than 30 µM and 10 µM, respectively.

Take `Cc1c(Cl)cccc1Nc1ncnc2cc(Cl)ccc12` [Number 3, 7-Chloro-N-(3-chloro-2-methylphenyl)-4-quinazolinamine]: the figures for the IC50 in assay [1] (setting [4]), in assay [2] (setting [5]) and in assay [3] (setting [6]) were greater than 30 µM, greater than 30 µM and 14 µM, respectively.

For `N#CC(C#N)=NNc1cccc(Cl)c1` [Number 4], the IC50 in assay [1] (setting [4]) was 3.54 µM; in assay [2] (setting [5]), 4.31 µM; in assay [3] (setting [6]), 2.85 µM.

Take `Cn1c(/C=C/c2ccc([N+](=O)[O-])o2)nc2ccccc2c1=O` [Number 5, 3-Methyl-2-[(E)-2-(5-nitro-2-furyl)vinyl]-4(3H)-quinazolinone]: the figures for the IC50 in assay [1] (setting [4]), in assay [2] (setting [5]) and in assay [3] (setting [6]) were 2.39 µM, 4.01 µM and 2.64 µM, respectively.

Turning to `O=c1c2ccccc2nc(/C=C/c2ccc([N+](=O)[O-])o2)n1-c1ccc(O)cc1` [Number 6, 3-(4-Hydroxyphenyl)-2-[(E)-2-(5-nitro-2-furyl)vinyl]-4(3H)-quinazolinone], the IC50 in assay [1] (setting [4]) worked out at 3.17 µM; in assay [2] (setting [5]), 4.49 µM; in assay [3] (setting [6]), 2.98 µM.

Turning to `COc1cc2ncnc(Nc3cccc(Cl)c3C)c2cc1OC` [Number 7, N-(3-Chloro-2-methylphenyl)-6,7-dimethoxy-4-quinazolinamine], the IC50 in assay [1] (setting [4]) is 17 µM; in assay [2] (setting [5]), greater than 30 µM; in assay [3] (setting [6]) it was 12.1 µM.

Take `O=C(Nc1ccccc1C(=O)NCc1ccccn1)c1ccc([N+](=O)[O-])o1` [Number 8, 5-Nitro-N-{2-[(2-pyridinylmethyl)carbamoyl]phenyl}-2-furamide]: the IC50 in assay [1] (setting [4]) was found to be 19.4 µM; in assay [2] (setting [5]) it was 24.5 µM; in assay [3] (setting [6]), 19.4 µM.

For `COc1cc(NC(=O)c2ccc([N+](=O)[O-])o2)cc(C(F)(F)F)c1` [Number 9, N-[3-Methoxy-5-(trifluoromethyl)phenyl]-5-nitro-2-furamide], the IC50 in assay [1] (setting [4]) came out at 15 µM; in assay [2] (setting [7]) it was 18.4 µM; in assay [3] (setting [6]), 15.5 µM.

With `c1ccc(CNc2cc(-c3ccccc3)nc(-c3ccccn3)n2)cc1` [Number 10, N-benzyl-6-phenyl-2-pyridin-2-ylpyrimidin-4-amine], the IC50 in assay [1] (setting [4]) was determined as 3.24 µM; in assay [2] (setting [5]), 7.73 µM; in assay [3] (setting [6]) it was 6.03 µM.

With `Fc1ccccc1-c1cc(NCCc2c[nH]c3ccccc23)nc(-c2ccccn2)n1` [Number 11, 6-(2-Fluorophenyl)-N-[2-(1H-indol-3-yl)ethyl]-2-(2-pyridinyl)-4-pyrimidinamine], the values for the IC50 in assay [1] (setting [4]), in assay [2] (setting [5]) and in assay [3] (setting [6]) were 3.05 µM, 9.68 µM and 6.43 µM, respectively.

For `CN(C)S(=O)(=O)c1cc(NC(=O)c2ccc([N+](=O)[O-])o2)ccc1Cl` [Number 12, N-[4-Chloro-3-(dimethylsulfamoyl)phenyl]-5-nitro-2-furamide], the IC50 was determined as 7.09 µM in assay [1] (setting [4]), 11.2 µM in assay [2] (setting [5]) and 8.51 µM in assay [3] (setting [6]).

As to `CC(C)c1cc(N2CCCCC2)nc(-c2ccccn2)n1` [Number 13, 4-Piperidin-1-yl-6-propan-2-yl-2-pyridin-2-ylpyrimidine], the IC50 worked out at 6.75 µM in assay [1] (setting [4]), 28.7 µM in assay [2] (setting [5]) and 18.7 µM in assay [3] (setting [6]).

With `COc1cc(F)c(F)c(Nc2ccc(I)cc2F)c1NS(=O)(=O)C1(C[C@H](O)CO)CC1` [Number 14, Refametinib], the IC50 in assay [1] (setting [4]), in assay [2] (setting [7]) and in assay [3] (setting [6]) was greater than 30 µM each time.

On to `O=C1C2=C(C(=O)c3ccccc31)[C@H]1Oc3ccccc3[C@H]1CO2` [Number 15, Pterocarpanquinone ((2S,10S)-3,12-dioxapentacyclo[11.8.0.02,10.04,9.015,20]henicosa-1(13),4,6,8,15,17,19-heptaene-14,21-dione)], for which the figures for the IC50 in assay [1] (setting [8]), in assay [2] (setting [7]) and in assay [3] (setting [9]) were 3.54 µM, 4.45 µM and 2.8 µM, respectively.

With `CCOC(=O)CCNc1cc(N2CCc3ccccc3CC2)nc(-c2ccccn2)n1` [Number 17], the figures for the IC50 in assay [1] (setting [4]), in assay [2] (setting [5]) and in assay [3] (setting [6]) were 3.41 µM, 7.69 µM and 6.08 µM, respectively.

Consider `CC(=O)N(C)c1ccc(Nc2nc(NC3CCC3)c3[nH]cnc3n2)cc1` [Number 18, N-(4-{[6-(Cyclobutylamino)-7H-purin-2-yl]amino}phenyl)-N-methylacetamide], for which the IC50 came out at 3.07 µM in assay [1] (setting [4]), 5.93 µM in assay [2] (setting [5]) and 2.53 µM in assay [3] (setting [6]).

As for `COc1ccc(Cc2c(N)nc(-c3ccccn3)nc2N)cc1` [Number 19, 5-(4-Methoxybenzyl)-2-(2-pyridinyl)-4,6-pyrimidinediamine], the IC50 in assay [1] (setting [4]) worked out at 20 µM; in assay [2] (setting [5]), 36.5 µM; in assay [3] (setting [6]) it was 24.9 µM.

In the case of `Cc1nc(Nc2ncc(C(=O)Nc3c(C)cccc3Cl)s2)cc(N2CCN(CCO)CC2)n1` [Number 20], the IC50 was 2.32 µM in assay [1] (setting [4]), 3.74 µM in assay [2] (setting [5]) and 1.42 µM in assay [3] (setting [6]).

For the compound `S=C(SSC(=S)N1CCOCC1)N1CCOCC1` [Number 21, Dimorpholinethiuram disulfide], the IC50 in assay [1] (setting [4]) came to 5.3 µM; in assay [2] (setting [5]) it was 19.8 µM; in assay [3] (setting [6]), 3.94 µM.

In the case of `N#CC(C#N)=NNc1ccc(OC(F)(F)F)cc1` [Number 22], the figures for the IC50 in assay [1] (setting [4]), in assay [2] (setting [5]) and in assay [3] (setting [6]) were 2.89 µM, 4.12 µM and 2.42 µM, respectively.

With `O=C(NOCC1CC1)c1ccc(F)c(F)c1Nc1ccc(I)cc1Cl` [Number 23], the IC50 in assay [1] (setting [4]) amounted to 6.21 µM; in assay [2] (setting [5]) it was 10.3 µM; in assay [3] (setting [6]) it was 7.96 µM.

Take `O=C(NOC[C@H](O)CO)c1ccc(F)c(F)c1Nc1ccc(I)cc1F` [Number 24, Mirdametinib, reference compound]: the effect sizes result in assay [1] is listed as “strong effect sizes”.

With `O=C(NOC[C@H](O)CO)c1ccc(F)c(F)c1Nc1ccc(I)cc1F` [Number 24, Mirdametinib], the figures for the IC50 in assay [1] (setting [8]) and in assay [3] (setting [9]) were 80 µM and 21.8 µM, respectively.

With `Cn1c(=O)c(F)c(Nc2ccc(I)cc2F)c2c(=O)n(C[C@@H](O)CO)cnc21` [Number 25, Tak-733, reference compound], the effect sizes entry in assay [1] is “strong effect sizes”.

On to `Cn1c(=O)c(F)c(Nc2ccc(I)cc2F)c2c(=O)n(C[C@@H](O)CO)cnc21` [Number 25], for which the values for the IC50 in assay [1] (setting [4]), in assay [2] (setting [5]) and in assay [3] (setting [6]) were 16.9 µM, 41.9 µM and 9.51 µM, respectively.

For the origin of these results see patent EP4667628A1, “SYNTHETIC LETHALITY TO TREAT AUTOSOMAL DOMINANT POLYCYSTIC KIDNEY DISEASE (ADPKD)” (Albert-Ludwigs-Universität Freiburg Körperschaft des …, priority 2024, dated 2025).
